The values that follow come from article PMC5663395, “Chemical Validation of Methionyl-tRNA Synthetase as a Druggable Target in Leishmania donovani” (ACS Infectious Diseases, 2017).

Where two headings read alike, the source gives them in different places. Bounds are passed on as bounds.

In one test the target is LdMetRS (Leishmania donovani, UniProt A0A3Q8IBX2). Kind of test: LdMetRS biochemical enzyme assay (BIOMOL Green). As to conditions: read-out: LdMetRS IC50. The method, then:
LdMetRS Assay Development and Kinetic Parameter Determinations
Activity of the LdMetRS enzyme was determined by monitoring levels of pyrophosphate released during the first step of the enzymatic reaction. The pyrophosphate formed was converted to two inorganic phosphate molecules using a pyrophosphatase enzyme and levels of the resulting phosphate molecules measured using the BIOMOL® Green reagent (Enzo Life Sciences) 2.
Following optimization of the assay buffer and determination of the enzyme linearity, 384-well plate based assays were carried out at room temperature in a 50 μl reaction volume containing 30 mM Tris, pH 8.0, 140 mM NaCl, 30 mM KCl, 40 mM MgCl2, 0.01% (v/v) Brij-35, 1 mM DTT, 1 U/ml pyrophosphatase, 50 nM recombinant LdMetRS, and varying concentrations of substrates. Michaelis constants for the ATP and methionine substrates were determined in an end point assay using the above buffer and enzyme conditions. Data were fitted to the modified Michaelis-Menten equations […]
Equation 1 (Hill equation): […]
Equation 2 (High substrate inhibition Michaelis-Menten equation): […]
LdMetRS Inhibitor Studies
All test compounds were solubilized in 100% DMSO to a concentration of 10 mM. To generate IC50 data for the compounds, assay ready plates containing 10-point inhibitor curves (half-log serial dilutions) were prepared using an Echo® 550 (Labcyte).
Following preparation of the inhibitor curves, assays were carried out at room temperature in clear, flat bottom, polystyrene, 384-well plates (Greiner). Each assay was performed in a 50 μl reaction volume containing 30 mM Tris; pH 8.0, 140 mM NaCl, 30 mM KCl, 40 mM MgCl2, 0.01% (v/v) Brij-35, 1 mM DTT, 1 U/ml pyrophosphatase, 50 nM recombinant LdMetRS, 50 µM methionine and 100 µM […]
Assays were performed by adding 25 μl buffer with enzyme to assay plates (with buffer only added to ‘no enzyme’ control wells) before the reaction was initiated with the addition of a 25 μl mix containing methionine, ATP and pyrophosphatase to all wells. Following a 120 min reaction at room temperature the assay was stopped with the addition of 50 μl BIOMOL® Green. The BIOMOL® Green signal was allowed to develop for 30 min before the absorbance of each well was read at 650 nm using an EnVision multilabel plate reader (PerkinElmer Life Sciences). All liquid dispensing steps were carried out using a Thermo Scientific WellMate dispenser (Matrix).
ActivityBase from IDBS (version 8.0.5.4) was used for data processing and analysis. All IC50 curve fitting was undertaken using ActivityBase XE (version 7.7.1) from IDBS. A four-parameter logistic dose-response curve was utilized with prefit used for all four parameters.
For DDD806905 Kiapp determinations, data fitting to the Morrison equation (equation 3) was carried out using GraFit v6.0 (Erithacus Software). It should be noted that data for fitting to the Morrison equation was normalised to a ‘100 µM DDD806905’ control rather than a ‘no enzyme’ control as […]
Equation 3 (Morrison equation): […]
vi = K1 −−([ ] [ ]ET+IT+Ki)−([ ] [ ]ET+IT+i)[ ] [ ]TIE4T
LdMetRS Mode of Inhibition Studies
To establish the mode of inhibition of DDD806905, data sets (generated using the BIOMOL® Green assay platform previously described) were collected by varying both the inhibitor and substrate concentrations. Using GraFit v6.0 (Erithacus Software) each data set was individually fitted to the Michaelis-Menten equation or the modified high substrate inhibition Michaelis-Menten equation described above (equation 2), and the resulting Lineweaver-Burk plots were examined for diagnostic […]
Data sets were then globally fitted to the appropriate model (with equations 4 and 5 used for […]
If more than one model appeared possible, then data were fitted to both and examined for significance using the F-test function in GraFit.

Test [1] concerns L. donovani axenic amastigotes. The test can be described thus: Leishmania axenic amastigote viability assay. The test is classed as cell-based, Leishmania donovani. As to conditions: read-out: Leishmania Axenic Amastigote EC50. How it is done:
(§1) carried out as described above using 5%, 10% and 20% FBS in the media. To examine the effect of the methionine concentration on the potency of DDD806905 parasites were grown in the presence of drug and in the presence (or absence) of 20-fold excess methionine (0.3 g/l). IC50 curve fitting was undertaken in GraFit version 6.0 (Erithacus Software) using a four-parameter logistic dose-response curve (equation 6), with s the slope.
(§2) Leishmania Axenic Amastigote Assay
(§3) The Leishmania axenic amastigote assay was performed using the method published in Nühs et al 15.
(§4) Leishmania Intracellular Amastigote Assay
(§5) The intramacrophage Leishmania assay was performed using a modified version of the method described in De Rycker et al 16. […]
amphotericin B was included. Controls were as follows: columns 11 and 12: DMSO, columns 23 and 24: amphotericin B (final concentration 2 µM). 350 nl of compound was pre-dispensed into 384-well sterile intermediary plates. To the intermediary plates, 35 µl of THP-1 media was added and plates were shaken for >5 min to ensure complete mixing. THP-1 cells (8,000 per well, 50 µl) were plated into black clear-bottom 384-well plates (Corning) in presence of 20 nM phorbol 12-myristate 13- […]
in a humidified incubator for 75 h. The cells were then washed with 450 µl sterile phosphate buffered saline (PBS) supplemented with 1 mM CaCl2, 0.5 mM MgCl2, 0.1% (w/v) bovine serum albumin (PBS-A) and amastigotes were added to all wells at a multiplicity of infection of 5 (40,000 amastigotes per well). After 40 min at room temperature, plates were returned to the incubator.
Amastigotes were incubated in the presence of THP-1 macrophages for 16 h. Any remaining extracellular amastigotes were subsequently removed by washing with PBS-A followed by addition of 25 µl of the compound pre-dilutions using an Ipette-pro pipetting station (FluidX). The final dilution of each compound was 200-fold. Plates were incubated for 96 h and then washed (250 µl PBS-A) and fixed (4 % (v/v) formaldehyde-PBS, 30 min, room temperature). After fixation, the wells were washed with 250 µl PBS, stained (10 µg/ml DAPI, 0.4 µg/mL HCS Cellmask Deep Red in PBS + 0.1% (v/v) Triton X-100, 30 min, room temperature) and washed with 250 µl PBS. Finally, PBS + 0.05% (v/v) thimerosal was added to the wells, the plates were sealed and imaged on a high-content microscope (GE IN Cell 2000) using a 10x objective. Image analysis was carried out with GE IN Cell Analyzer 1000 Workstation using the “Multi Target Analysis” module. For each well, i) THP-1 cell count (cytotoxicity readout) and ii) average number of amastigotes per cell (potency readout) were […]

Test [2] deals with L. donovani promastigotes. Kind of test: Leishmania promastigote viability assay. The test is classed as cell-based, Leishmania donovani. The note with it: Supplementary Table 1; read-out: Leishmania Promastigote EC50. How it is done:
After suitable sample preparation, the
In vivo Leishmaniasis Animal Model […]
administered twice daily over the same interval.
Parasite load is expressed in Leishman-
Knock-out and overexpressor generation
Leishmania Promastigote Assay
Serum shift experiments were […]
as §1, §2, §3, §4, §5
amphotericin B was included. Controls were as follows: columns 11 and 12: DMSO, columns 23 and 24: amphotericin B (final concentration 2 µM). 350 nl of compound was pre-dispensed into 384-well sterile intermediary plates. To the intermediary plates, 35 µl of THP-1 media was added and plates were shaken for >5 min to ensure complete mixing. THP-1 cells (8,000 per well, 50 µl) were plated into black clear-bottom 384-well plates (Corning) in presence of 20 nM phorbol 12-myristate 13-

Sequence of LdMetRS (A0A3Q8IBX2 entry or part of it): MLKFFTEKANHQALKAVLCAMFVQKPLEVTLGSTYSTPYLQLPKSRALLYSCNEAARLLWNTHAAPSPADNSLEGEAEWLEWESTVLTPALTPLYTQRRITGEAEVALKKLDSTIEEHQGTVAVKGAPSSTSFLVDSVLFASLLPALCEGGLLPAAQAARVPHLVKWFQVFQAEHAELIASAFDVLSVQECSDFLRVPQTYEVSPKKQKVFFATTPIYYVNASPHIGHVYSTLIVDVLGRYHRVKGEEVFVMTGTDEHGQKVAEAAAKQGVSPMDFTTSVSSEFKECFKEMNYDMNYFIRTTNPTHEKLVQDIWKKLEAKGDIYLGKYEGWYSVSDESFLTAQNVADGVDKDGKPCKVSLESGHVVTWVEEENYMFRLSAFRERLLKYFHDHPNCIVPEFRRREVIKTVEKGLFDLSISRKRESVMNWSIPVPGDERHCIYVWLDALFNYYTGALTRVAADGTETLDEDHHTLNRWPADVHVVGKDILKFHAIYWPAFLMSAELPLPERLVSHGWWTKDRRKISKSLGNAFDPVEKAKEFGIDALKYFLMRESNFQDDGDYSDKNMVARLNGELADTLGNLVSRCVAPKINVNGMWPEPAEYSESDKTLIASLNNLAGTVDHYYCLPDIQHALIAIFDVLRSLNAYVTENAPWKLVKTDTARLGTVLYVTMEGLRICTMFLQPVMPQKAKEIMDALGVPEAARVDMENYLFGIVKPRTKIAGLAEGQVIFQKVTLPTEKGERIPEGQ

With `Cc1cc(C)c2cc(CNCCCNc3nc4ccccc4[nH]3)[nH]c2c1` [Compound 12], the IC50 (in general, the midpoint of a concentration-inhibition curve) at LdMetRS (Supplementary Table 1) was 5.6 µM. Also, the EC50 (as a rule, the concentration giving half of the maximal effect) in test [1] (Supplementary Table 1) is more than 50 µM; in test [2], 9.5 µM.
For `CCOc1c(Br)cc(C)cc1CNCCCNc1nc2ccccc2[nH]1` [Compound 14], the concentration for half-maximal inhibition (IC50) on LdMetRS (Supplementary Table 1) is 12 µM. In addition, the values for the EC50 in test [1] (Supplementary Table 1) and in test [2] were more than 50 µM and 7.6 µM, respectively.
The corresponding values for `Cc1c(CNCCCNc2nc3ccccc3[nH]2)[nH]c2cc(Cl)cc(Cl)c12` [Compound 4] are 2.8 µM, 38 µM and 1.3 µM.
For the molecule `O=c1nc(OCCCNCc2cc3c(Cl)cc(Cl)cc3[nH]2)[nH]c2ccccc12` [Compound 31], the IC50 at LdMetRS (Table 1) is 22 µM. The EC50 in test [1] (Leishmania donovani, Table 1) is more than 50 µM.
With `Brc1cc(Br)c2c(c1)C(NCCCNc1nc3ncccc3[nH]1)CCN2` (stereo not drawn) [Compound 11], the IC50 on LdMetRS (Supplementary Table 1) is 0.17 µM. Also, the EC50 is 6.2 µM in test [1] (Supplementary Table 1) and 0.54 µM in test [2].
For `Clc1ccc(Cl)c2[nH]c(CNCCCNc3nc4ccccc4[nH]3)cc12` [Compound 3], the IC50 at LdMetRS (Supplementary Table 1) came out at 69 µM. Moreover, the EC50 is more than 50 µM in test [1] (Supplementary Table 1) and 7.1 µM in test [2].
In the same order, the values of `OCc1c(Cl)cc(Cl)cc1CNCCCNc1nc2ccccc2[nH]1` [Compound 8] are 47 µM, more than 50 µM and 33 µM.
Turning to `O=C(NCCCNc1nc(=O)c2ccccc2[nH]1)c1cc2c(Cl)cc(Cl)cc2[nH]1` [Compound 25], the IC50 at LdMetRS (Table 1) came to 3.3 µM. Moreover, in test [1] (Leishmania donovani, Table 1), the EC50 is more than 50 µM.
On to `COc1cc(C(F)(F)F)cc2[nH]c(CNCCCNc3nc4ccccc4[nH]3)cc12` [Compound 9], for which the IC50 at LdMetRS (Supplementary Table 1) is more than 100 µM. For the same molecule, the EC50 in test [1] (Supplementary Table 1) was more than 50 µM; in test [2], 7.8 µM.
As for `O=c1nc(NCCCCCc2cc(Cl)cc(Cl)c2)[nH]c2ccccc12` [Compound 29], the 50% inhibitory concentration (IC50) at LdMetRS (Table 1) is more than 100 µM. In test [1] (Leishmania donovani, Table 1), the EC50 is more than 50 µM.
On to `COc1cccc2[nH]c(NCCCNCc3cc(Br)cc(Br)c3)nc12` [Compound 7], for which the IC50 at LdMetRS (Supplementary Table 1) is 79 µM. The EC50 is more than 50 µM in test [1] (Supplementary Table 1) and 19 µM in test [2].
As to `O=c1nc(NCCCNCc2cc(Cl)cc(Cl)c2)[nH]c2ccccc12` [Compound 26], the IC50 on LdMetRS (Table 1) turned out to be 0.74 µM. For the same molecule, in test [1] (Leishmania donovani, Table 1), the EC50 was 38 µM.
On to `CN(CCCNc1nc(=O)c2ccccc2[nH]1)Cc1cc2c(Cl)cc(Cl)cc2[nH]1` [Compound 30], for which the IC50 on LdMetRS (Table 1) was found to be 0.03 µM. The EC50 in test [1] (Leishmania donovani, Table 1) was found to be 18 µM.
Regarding `O=C(CCNc1nc(=O)c2ccccc2[nH]1)NCc1cc(Cl)cc(Cl)c1` [Compound 27], the IC50 on LdMetRS (Table 1) turned out to be 2.8 µM. Moreover, the EC50 in test [1] (Leishmania donovani, Table 1) is 22 µM.
`CCOc1c(Br)cc(Cl)cc1CNCCCNc1nc2ccccc2[nH]1` [Compound 16]: the IC50 on LdMetRS (Supplementary Table 1) was 5.9 µM. Besides, the figures for the EC50 in test [1] (Supplementary Table 1) and in test [2] were more than 50 µM and 4.9 µM, respectively.
In the same order, the values of `CCOc1c(CNCCCNc2nc3ccccc3[nH]2)cc(Br)cc1OC` [Compound 13] are 37 µM, more than 50 µM and 19 µM.
For the molecule `CCOc1c(Cl)cc(Cl)cc1CNCCCNc1nc2ccccc2[nH]1` [Compound 15], the IC50 on LdMetRS (Supplementary Table 1) stood at 5.4 µM. Also, the values for the EC50 in test [1] (Supplementary Table 1) and in test [2] were more than 50 µM and 4.1 µM, respectively.
The corresponding values for `COc1cc(C(F)(F)F)c2cc(CNCCCNc3nc4ccccc4[nH]3)[nH]c2c1` [Compound 10] are 4.8 µM, more than 50 µM and 6.5 µM.
For `OCCn1c(CNCCCNc2nc3ccccc3[nH]2)cc2c(Cl)cc(Cl)cc21` [Compound 17], the IC50 on LdMetRS (Supplementary Table 1) was 0.38 µM. In addition, the EC50 stood at 19 µM in test [1] (Supplementary Table 1) and 0.87 µM in test [2].
The corresponding values for `FC(F)(F)c1cc(C(F)(F)F)c2cc(CNCCCNc3nc4ccccc4[nH]3)[nH]c2c1` [Compound 5] are 46 µM, 29 µM and 6.2 µM.
